Laboratory results from ChEMBL document CHEMBL1136931, “Discovery of low nanomolar and subnanomolar inhibitors of the mycobacterial beta-carbonic anhydrases Rv1284 and Rv3273” (J Med Chem, 2009).

What was measured:
[1] = biological target: T1, Beta-carbonic anhydrase 1 (Mycobacterium tuberculosis, UniProt P9WPJ7)
T1 sequence (P9WPJ7 whole entry): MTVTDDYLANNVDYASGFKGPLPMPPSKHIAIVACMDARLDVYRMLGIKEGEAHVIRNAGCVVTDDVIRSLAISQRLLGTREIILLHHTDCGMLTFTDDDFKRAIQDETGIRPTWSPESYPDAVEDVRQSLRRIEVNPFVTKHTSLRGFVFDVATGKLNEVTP

Carbonic anhydrase 2 = Carbonic anhydrase 2 (Homo sapiens, UniProt P00918)
Carbonic anhydrase 1 = Carbonic anhydrase 1 (Homo sapiens, UniProt P00915)
Sequence of Carbonic anhydrase 1 (P00915 whole entry): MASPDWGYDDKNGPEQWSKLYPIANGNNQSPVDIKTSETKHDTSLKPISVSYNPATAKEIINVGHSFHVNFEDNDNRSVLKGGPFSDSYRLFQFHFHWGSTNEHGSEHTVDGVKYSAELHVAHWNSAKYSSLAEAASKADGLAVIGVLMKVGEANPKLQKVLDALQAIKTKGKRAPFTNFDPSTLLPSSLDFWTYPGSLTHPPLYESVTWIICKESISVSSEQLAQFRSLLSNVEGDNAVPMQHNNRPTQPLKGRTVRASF

Structure (SMILES) | Ki [1] [nM] | Ki (Carbonic anhydrase 2) [nM] | Ki (Carbonic anhydrase 1) [nM]
NC(=O)c1[nH]c2ccc(S(N)(=O)=O)cc2c1-c1ccccc1 | 7.5 | 31 | 48
NS(=O)(=O)c1ccc(S(=O)(=O)Nc2cccc3c(Cl)c[nH]c23)cc1 |  |  | 97
